Source: patent US10905139B2, “Refreshing beverage” (priority 2011, dated 2021)

What was measured:
[1] = in vivo; cited from earlier work
[2] = tested on: cancer cells (in cancer tissue sections); conditions: sugar as food substrate; cited from earlier work
[3] = tested on: cancer cells (in cancer tissue sections); test: fermentation metabolism of cancer cells with different sugars as food substrate (Warburg); type: cell-based; conditions: sugar as food substrate
Excerpt: On the other hand, tests carried out by the Nobel prizewinner Otto Heinrich Warburg have shown that the fermentation metabolism of cancer cells (in cancer tissue sections) progresses most effectively with glucose as a food substrate, specifically at a rate of 23.9 consumed units per unit of time, whereas, with the substrate fructose, it progresses less effectively by a factor of 7 (rate 3.3), and, with galactose, progresses even less effectively by a factor of 18 (rate 1.3). […] Galactose should therefore be a key sugar source in the diet of cancer patients.

[4] = in vivo; cited from earlier work; remark: listed apart in the source

| Compound | glycemic index (GI) [1] | rate of fermentation metabolism [2] | factor by which fermentation progresses less effectively than with glucose [3] | extent digested directly by the human body [4] | remaining fraction broken down by the intestinal flora [4] [%] |
| --- | --- | --- | --- | --- | --- |
| O=C[C@H](O)[C@@H](O)[C@H](O)[C@H](O)CO [glucose, reference compound] | 100 | 23.9 consumed units per unit of time |  |  |  |
| O=C[C@H](O)[C@@H](O)[C@@H](O)[C@H](O)CO [galactose] | 20 | 1.3 consumed units per unit of time | 18 |  |  |
| O=C(CO)[C@@H](O)[C@H](O)[C@H](O)CO [fructose, reference compound] |  | 3.3 consumed units per unit of time | 7 |  |  |
| O=C[C@H](O)[C@H](O)[C@H](O)CO [Ribose] | negative |  |  |  |  |
| OC[C@H]1O[C@H](O[C@H]2O[C@H](CO)[C@@H](O)[C@H](O)[C@H]2O)[C@H](O)[C@@H](O)[C@@H]1O [trehalose] | ~32 |  |  |  |  |
| OC[C@H]1O[C@@](CO)(O[C@H]2O[C@H](CO)[C@@H](O)[C@H](O)[C@H]2O)[C@@H](O)[C@@H]1O [sucrose, reference compound] | 65 |  |  |  |  |
| OC[C@H]1O[C@H](OC[C@H]2OC(O)(CO)[C@@H](O)[C@@H]2O)[C@H](O)[C@@H](O)[C@@H]1O (some centres unmarked) [isomaltulose] | 32 |  |  |  |  |
| O=C(CO)[C@@H](O)[C@@H](O)[C@H](O)CO [Tagatose] | 3 |  |  | approximately 20% | 80 |
